In assay [1] the test system is gastric acid secretion (pentagastrin-stimulated acid output from the gastric pouch). Briefly: Gastric acid antisecretory activity in pentagastrin-stimulated conscious Heidenhain pouch dogs. Particulars: Canis lupus familiaris; for inhibition in vivo at 2 mg/kg: oral dose of 2 mg/kg, Heidenhain pouch dogs, pentagastrin; for inhibition in vivo at up to 2 mg/kg: at the same (oral 2 mg/kg) or a lower dose. Format: in vivo. Here is the method: The gastric acid antisecretory activity of compounds of the present invention was determined in overnight fasted, conscious Heidenhain pouch dogs. Pentagastrin (Pentavolon-Ayerst) was used to stimulate acid output by continuous infusion into a superficial leg vein at doses earlier determined to stimulate near maximal acid output from the gastric pouch. Gastric juice was collected at 30 minute intervals following the start of a pentagastrin infusion and measured to the nearest 0.1 ml. Ten collections were taken for each dog during an experiment. Acid concentration was determined by tritrating 1.0 ml of gastric juice to pH 7.4 with 0.1N sodium hydroxide using an Autoburette and a glass electrode pH meter (Radiometer).
Drug or vehicle was given intravenously or orally 90 minutes following the start of the pentagastrin infusion, at a dose of 2 mg/kg or less. Gastric acid antisecretory effects were calculated by comparing the lowest acid output after drug administration with the mean acid output immediately before drug.

The target of the next assay is T1, histamine-H2 receptor (Cavia porcellus, UniProt P47747).
T1 construct: the heart removed and the right atria dissected free; from tissue; host or cells: guinea pig right atria (isolated, spontaneously beating)
Briefly: Histamine-H2 antagonist activity in isolated guinea pig right atria (pA2). The class given is cell-based, Guinea pigs. Particulars: Krebs-Henseleit buffer pH 7.4, 32°±2° C., histamine dose-response, * tested as the dihydrobromide salt, read-out: pA2 (apparent dissociation constant of the H2-receptor antagonist) (converted). The method, then:
The histamine-H2 antagonist activity of compounds of the present invention was determined by the following procedure:
Guinea pigs are killed rapidly with a blow to the head, the heart removed and the right atria dissected free. Atria are suspended, isometrically, in a temperature-controlled (32°±2° C.) tissue bath (10 ml) containing oxygenated (95% O2; 5% CO2) Krebs-Henseleit buffer (pH 7.4) and are allowed to stabilize approximately one hour during which time the tissue bath is flushed several times. Individual atrial contractions are followed with a force-displacement transducer connected to a cardiotachometer and Grass polygraph recorder. After obtaining a dose-response curve to histamine, the bath containing each atrium is flushed several times with fresh buffer and the atria reequilibrated to basal rates. Following the return to basal rate, test compounds are added at selected final concentrations and the histamine dose-response curve is again determined in the presence of antagonist. Results are expressed as dose-ratios, the ratio of histamine concentrations required to produce one-half of maximal stimulation in the presence and absence of antagonist, and the apparent dissociation constant of the H2 -receptor antagonist pA2, is determined.

Assay [2] deals with ethanol-induced gastric ulceration. Briefly: Inhibition of ethanol-induced ulceration in rats. Format: in vivo, male rats. Particulars: for cytoprotection (inhibition of ethanol-induced ulceration): same dosage, 30 mg/kg oral. The method, then:
The antiulcer activity of the products of this invention was also determined by an ethanol-induced rat ulcer assay. In this test, overnight fasted male rats are given drug (at 30 or 3 mg/kg) or water orally fifteen minutes prior to an orally administered dose of absolute ethanol (1.0 ml). One hour after the ethanol challenge the animals (8/group) are killed and the stomachs examined for the presence of lesions. After sacrifice the abdomen is opened and a locking hemostat placed at the pylorus. Six ml of a 4% solution of formaldehyde was injected into the stomach with a gastric feeding tube and a second locking hemostat was used to seal the esophagus. The stomach was removed, opened along the greater curvature and examined for ulceration.
The scoring system used to quantitate the ethanol-induced lesions is given below.
For each group of animals an ulcer index is calculated as follows:
Ulceration Index=(the sum of the scores of the group)×(the sum of the number of ulcers in the group)×(the fraction of the group having any incidence of ulceration).
The percentage inhibition of ulcers is calculated as follows:
% Inhibition=100×[(ulcer index controls)-(ulcer index
drug-treated)].div.(ulcer index controls).

[3] abbreviates: * tested as the dihydrobromide salt.
The mark [4] stands for this setting: oral dose of 30 mg/kg, fifteen minutes prior to absolute ethanol.
Setting [5] is: oral dose of 3 mg/kg, * tested as the dihydrobromide salt.

Molecules are shown by their SMILES.

The term inhibition in vivo denotes the change of the read-out against control, counted positive when it falls.

T1 sequence (P47747 whole entry): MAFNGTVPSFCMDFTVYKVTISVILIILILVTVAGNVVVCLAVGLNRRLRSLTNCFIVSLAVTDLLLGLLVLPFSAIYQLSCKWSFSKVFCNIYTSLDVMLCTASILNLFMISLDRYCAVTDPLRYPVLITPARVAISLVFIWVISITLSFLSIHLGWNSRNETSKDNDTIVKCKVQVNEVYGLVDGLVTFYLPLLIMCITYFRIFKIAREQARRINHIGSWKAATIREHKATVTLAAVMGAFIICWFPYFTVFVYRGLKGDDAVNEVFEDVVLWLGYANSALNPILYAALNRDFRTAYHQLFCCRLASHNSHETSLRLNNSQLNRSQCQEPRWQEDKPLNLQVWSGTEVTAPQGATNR

For the molecule `CCCCCCCCNC(N)=Nc1nc(-c2c[nH]c(C)n2)cs1` [Example 6g], the inhibition in vivo at 2 mg/kg in assay [1] was at least 24%. For the same molecule, on histamine-H2 receptor, the Kb is at most 126 nM.

Take `CCCCCCNC(N)=Nc1nc(-c2c[nH]c(C)n2)cs1` [Example 5*]: in assay [1] (iv, dose of 0.1 mg/kg (i.v.), * tested as the dihydrobromide salt), the inhibition in vivo at 0.1 mg/kg came to 58%. For the same molecule, the inhibition in vivo at up to 2 mg/kg in assay [1] (setting [3]) was at least 64%. The Kb on histamine-H2 receptor is at most 63.1 nM.

The molecule `CCCCCCCNC(N)=Nc1nc(-c2c[nH]c(C)n2)cs1` [Example 6f] had an inhibition in vivo at 2 mg/kg in assay [1] of at least 24%. The Kb at histamine-H2 receptor is at most 63.1 nM. Moreover, in assay [2] (setting [4]), the “inhibition of ethanol-induced ulceration” value was “at least 77%”. Also, the “cytoprotection (inhibition of ethanol-induced ulceration)” value in assay [2] is listed as at least 90%.

`Cc1nc(-c2csc(N=C(N)NCCCc3ccccc3)n2)c[nH]1` [Example 6n] gave an inhibition in vivo at 2 mg/kg in assay [1] of at least 24%. At histamine-H2 receptor, the Kb was at most 63.1 nM.

On to `CCCCCNC(N)=Nc1nc(-c2c[nH]c(C)n2)cs1` [Example 6c], for which, in assay [1] (setting [3]), the inhibition in vivo at up to 2 mg/kg is at least 64%. Besides, the Kb at histamine-H2 receptor was at most 126 nM. For the same molecule, in assay [2], the “cytoprotection (inhibition of ethanol-induced ulceration)” value is reported as at least 90%.

Turning to `CCCCCCC(C)NC(=N)Nc1nc(-c2c[nH]c(C)n2)cs1` (stereo not shown) [Example 6b, N-[4-(2-methylimidazol-4-yl)thiazol-2-yl]-N'-2-octylguanidine], the inhibition in vivo at up to 2 mg/kg in assay [1] (setting [3]) is at least 64%. For the same molecule, on histamine-H2 receptor, the Kb is at most 63.1 nM. Further, in assay [2] (setting [5]), the “inhibition of ethanol-induced ulceration” value is given as “at least 40%”.

Regarding `Cc1nc(-c2csc(NC(=N)NCc3ccccc3)n2)c[nH]1` [Example 6l, N-[4-(2-methylimidazol-4-yl)thiazol-2-yl]-N'-benzylguanidine], in assay [1] (setting [3]), the inhibition in vivo at up to 2 mg/kg is at least 64%. Besides, the “inhibition of ethanol-induced ulceration” value in assay [2] (setting [5]) is recorded as “at least 40%”; in assay [2] (setting [4]), “at least 77%”.

For the molecule `Cc1nc(-c2csc(N=C(N)NCCCCc3ccccc3)n2)c[nH]1` [Example 6o], the inhibition in vivo at 2 mg/kg in assay [1] is at least 24%. Also, the “inhibition of ethanol-induced ulceration” value in assay [2] (setting [4]) was “at least 77%”. Also, the “cytoprotection (inhibition of ethanol-induced ulceration)” value in assay [2] was at least 90%.

Turning to `Cc1nc(-c2csc(NC(=N)NCc3ccccc3)n2)c[nH]1` [Example 6a, N-[4-(2-methylimidazol-4-yl)thiazol-2-yl]-N'-benzylguanidine], the Kb at histamine-H2 receptor was at most 63.1 nM.

For `Cc1nc(-c2csc(N=C(N)NCCc3ccccc3)n2)c[nH]1` [Example 6m], the inhibition in vivo at up to 2 mg/kg in assay [1] (setting [3]) is at least 64%. The Kb at histamine-H2 receptor was at most 63.1 nM. Besides, the “inhibition of ethanol-induced ulceration” value in assay [2] (setting [4]) is “at least 77%”.

As to `CCCCCCC(C)NC(=N)Nc1nc(-c2c[nH]c(C)n2)cs1` (stereo not shown) [Example 6j, N-[4-(2-methylimidazol-4-yl)thiazol-2-yl]-N'-2-octylguanidine], the “inhibition of ethanol-induced ulceration” value in assay [2] (setting [4]) is “at least 77%”.

The values above are taken from patent US4560690A, “2-(N-substituted guanidino)-4-hetero-arylthiazole antiulcer agents” (Pfizer Inc., priority 1984, dated 1985).
